These results are taken from patent publication US9370521B2, “Targeting GLI proteins in human cancer by small molecules” (The Regents of the University of California, priority 2011, dated 2016).

One data set deals with NSCLC A549. Briefly: In vivo efficacy, Mouse Xenograft Model (lung cancer A549). The settings on record: 50 mg/kg i.p. daily for 14 days then another 7 days, tumors weighed day 43, vs control group, FIG. 3. Here is the method: The administered compounds were tested in vivo in the mouse xenograft model bearing human cancer cells. Briefly, female athymic nude mice strain NCRNU-M (5-10 weeks old, 20-25 grams in weight; Taconic, Germantown, N.Y.) was maintained in pathogen-free conditions. Three human cancer cell lines: NSCLC A549, melanoma MelJuso, and mesothelioma MS-1 were used. Five or ten mice were used in each group and injected s.c. with 3×10^6 cancer cells in the dorsal area in a volume of 100 μl. After inoculation, human cancer cells were allowed to grow in mice for 10-13 days to become visible tumor nodules. Animals were then injected with a compound of the embodiments at a dose of 50 mg/kg body weight (1 mg/mouse per day). Vehicle alone was used as control. The compounds and controls were adjusted in 40 ul volume for i.p. injection in the abdomens of the mice. Injections were performed daily around the same time for 14 days. […] Tumor size was measured every three to four days, and tumor volumes were calculated using width (x) and length (y) (x^2y/2, where x<y). Throughout this period, general toxicity of the treatments was also monitored by measuring body weight of the mice. […]
In vivo efficacy study of Compounds 1 and 4 in Mouse Xenograft Model (NSCLC A549) was examined. […] 43 days after the initial tumor inoculation, tumors were dissected from the mice of each group and their weights were measured using a scale. […]

Data set [1] can be described thus: Histological examination (H&E) of organs for toxicity. The class given is in vivo. The settings on record: mice, i.p. two doses daily for 6 days, FIGS. 8-11. The text has this:
(§1) After the in vivo studies were completed, different organs were resected from mice. These organs included liver, lung, heart, kidney, intestines, ovary, brain, spleen, skin, and muscle. The specimens were fixed in 4% buffered formaldehyde, embedded in paraffin, sectioned, and histologically analyzed by hematoxylin and eosin (HE) staining. The HE stained slides were examined by a mouse pathologist for toxicity evidence from all the organs as compared with vehicle controls. In addition, leukocytes (WBC: white blood cell, NE: neutrophil, LY: lymphocyte, MO: monocyte, EO: eosinophil, BA: basophil) from each animal from all treatment groups were collected and leukocyte population was counted through a blood cell counter.
To analyze toxicity of the Compounds 1, 2, 4, and 6 in vivo, each group (three mice) was i.p. injected with two doses of each Compound daily for 6 days, and then major mouse organs, such as liver, spleen, kidney, and heart were resected from the mice. The specimens will be fixed in 4% buffered formaldehyde, embedded in paraffin, sectioned and histologically analyzed by hematoxylin and eosin (H&E) staining.

Data set [2] is described as follows: Preliminary in vivo toxicity: leukocyte population and body weight after in vivo treatment. More on the design: species or system mouse. The settings on record: mice. Here is the method: (§2) The administered compounds were tested in vivo in the mouse xenograft model bearing human cancer cells. Briefly, female athymic nude mice strain NCRNU-M (5-10 weeks old, 20-25 grams in weight; Taconic, Germantown, N.Y.) was maintained in pathogen-free conditions. Three human cancer cell lines: NSCLC A549, melanoma MelJuso, and mesothelioma MS-1 were used. Five or ten mice were used in each group and injected s.c. with 3×10^6 cancer cells in the dorsal area in a volume of 100 μl. After inoculation, human cancer cells were allowed to grow in mice for 10-13 days to become visible tumor nodules. Animals were then injected with a compound of the embodiments at a dose of 50 mg/kg body weight (1 mg/mouse per day). Vehicle alone was used as control. The compounds and controls were adjusted in 40 ul volume for i.p. injection in the abdomens of the mice. Injections were performed daily around the same time for 14 days. Tumors were allowed to grow for 1-2 additional weeks after completion of the compound treatments. Tumor size was measured every three to four days, and tumor volumes were calculated using width (x) and length (y) (x^2y/2, where x<y). Throughout this period, general toxicity of the treatments was also monitored by measuring body weight of the mice. Data was presented as mean values (±S.D.).
as §1
As preliminary in vivo toxicity study of Compounds 1, 2, 4, and 6, it was examined if there were changes of leukocyte population and loss of body weight in the mice after the treatment. At the completion of the in vivo studies as described herein, leukocytes (WBC: white blood cell, NE: neutrophil, LY: lymphocyte, MO: monocyte, EO: eosinophil, BA: basophil) from each animal from all treatment groups were collected and leukocyte population was counted through a blood cell counter. Body weights of control groups (n=10) and the treated group (n=10) were measured using a scale during the course of drug administration. […] In an additional toxicity study, effect of different doses of compounds 4 and 6 on the body weight of mice was examined. The compounds were i.p. injected in the abdomens at 3 different doses: 25, 50, and 100 mg/kg body weight to mice (3 mice per dosing group) for 6 consecutive days.

Data set [3] has as its system Hedgehog signaling pathway. Put plainly: Quantitative real-time RT-PCR of Hh pathway genes in xenograft tumors. The class given is in vivo, mouse. The settings on record: Melanoma tumor (MelJuso) xenograft, pooled tumor from two mice, FIG. 4. Here is the method:
Total RNA was isolated using Qiagen RNeasy Mini Kit (Valencia, Calif.). Hybridization probes and primers (Table 1) were purchased from Applied Biosystems (ABI, Foster City, Calif.). cDNA synthesis and Taqman® PCR were performed according to the manufactures' protocols. The gene expression was assayed in triplicate in ABI 7300 Real-time PCR System. Samples were normalized to their housekeeping gene GAPDH and then calculated by using 2^−dCt method.
To examine whether Compounds 1, 2, 4, and 6 suppressed tumor growth through inhibition of the Hedgehog signaling pathway in vivo, expression of the key components and direct target genes of the Hh pathway (e.g. Gli1, Gli2, Gli3, HHIP and Cyclin D1) were analyzed by quantitative real-time RT-PCR using total RNA isolated from the xenograft tumors. GAPDH served as a control. This RT-PCR analysis was performed using a “pooled” tumor from two randomly selected mice of each group with reasonable size tumors. […] The results are shown in FIG. 4, where C is control and V is vehicle.
(In qPCR the cycle at which signal appears reflects the starting amount.)

For another data set, the system named is melanoma MelJuso. Briefly: In vivo efficacy, Mouse Xenograft Model (melanoma MelJuso). The settings on record: 50 mg/kg i.p. daily for 14 days, FIG. 1. Here is the method:
as §2
In vivo efficacy study of Compounds 1, 2, 4, and 6 were performed using a Mouse Xenograft Model (Melanoma MelJuso). Mice were injected s.c. with 3×10^6 cells in the dorsal area in a volume of 100 μl. 13 days after inoculation, the mice started receiving treatments with the administered compound at a dose of 50 mg/kg body weight daily for 14 days (n=10). Vehicle alone was used as control (n=10). The administered compounds and vehicle were adjusted in a volume of 40 μl for i.p. injection in the abdomens of the mice. Tumor size and tumor volumes were calculated as described above.

Consider `CCCC1C(C(=O)NCCCC(C)(C)CO)C(c2ccc(F)cc2)=NN1c1ccccc1` (stereo not shown) [Compound 4, 3-(4-fluoro-phenyl)-1-phenyl-5-propyl-4,5-dihydro-1H-pyrazole-4-carboxylic acid (5-hydroxy-4,4-dimethyl-pentyl)-amide], for which the “Tumor weight after treatment” value with NSCLC A549 and with melanoma MelJuso was “significantly decreased” throughout. Moreover, the “Toxicity in organs (liver, spleen, kidney, heart), H&E histology” value in data set [1] is “No noticeable toxicity”. For the same molecule, the “Changes of leukocyte population” value in data set [2] (at completion of the in vivo studies, FIG. 5) is “No noticeable changes”. Besides, the “Loss of body weight” value in data set [2] (during the course of drug administration, FIG. 6) is “No noticeable changes of leukocyte population or loss of the body weight”. In addition, the “Hh signaling (expression of Gli1, Gli2, Gli3, HHIP, Cyclin D1) in tumor” value in data set [3] is reported as “inhibited”. For the same molecule, the “Tumor growth after treatment” value with melanoma MelJuso (vs vehicle) was “dramatically suppressed”.
